This is an account of results in ChEMBL document CHEMBL1201862, “PubChem BioAssay data set” (2004).

Some test systems named below: SNB-19; LOX IMVI; EKVX; SNB-75; HCC 2998; A498; NCI-H460; SF-268; HCT-15; UACC-257; Malme-3M; OVCAR-3; HOP-92; COLO 205; NCI-H522; ACHN.
What all share (test): NCI tumour cell line growth inhibition, 48 h

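1) Cells in 96-well plates. 2) Compound, 48 h, 5 concentrations. 3) Linear interpolation between surrounding doses. 4) Unreached endpoint = highest concentration. GI50 = concentration required for 50% inhibition of growth.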 Calls of active or inactive are those of the source. Cut-off read from the data, not from the text of the source: active = GI50 up to about 1.1 µM and inactive = higher.

With `Cc1ccc(C(=O)C2CC3(CCC2(O)c2ccc(C)cc2)CC(=O)Nc2ccccc2C3=O)cc1` (configuration not stated), the GI50 is 51.6 µM (inactive) with SNB-19; > 100 µM (inactive) in the experiment with LOX IMVI; > 100 µM (inactive) in the experiment on EKVX; 13.5 µM (inactive) with SNB-75; > 100 µM (inactive) with HCC 2998; > 100 µM (inactive) with A498. Also, the GI50 in the experiment with NCI-H460 was 40 µM (inactive); in the experiment with SF-268, > 100 µM (inactive); in the experiment on HCT-15, greater than 100 µM; in the experiment on UACC-257 it was > 100 µM (inactive); in the experiment with Malme-3M, > 100 µM (inactive); in the experiment on OVCAR-3, > 100 µM (inactive). Moreover, the GI50 is 19.4 µM (inactive) with HOP-92 and > 100 µM (inactive) in the experiment on COLO 205.

Take `CC1CN=C(Nc2cccc(C(F)(F)F)c2)S1` (configuration not stated): the GI50 in the experiment on SNB-19 was 95.5 µM (inactive); with LOX IMVI it was 43.5 µM (inactive); in the experiment with EKVX, 34.1 µM (inactive); with SNB-75, 88.1 µM (inactive); with HCC 2998, > 100 µM (inactive); with A498, 42 µM (inactive). Besides, the GI50 with NCI-H460 is 52.8 µM (inactive); with SF-268, 44 µM (inactive); in the experiment on HCT-15 it was 36.1 µM; in the experiment on UACC-257 it was 52.5 µM (inactive); with Malme-3M it was > 100 µM (inactive); in the experiment on NCI-H522 it was 42.4 µM (inactive). The GI50 was 51.5 µM (inactive) in the experiment on OVCAR-3 and > 100 µM (inactive) with ACHN.

With `COc1ccc(N2C(=O)CSC2c2c[nH]c3ccccc23)cc1` (configuration not stated), the GI50 is > 100 µM (inactive) with SNB-19; 78.9 µM (inactive) in the experiment with LOX IMVI; > 100 µM (inactive) in the experiment on EKVX; > 100 µM (inactive) with SNB-75; > 100 µM (inactive) with HCC 2998; 32.4 µM (inactive) in the experiment with NCI-H460. The GI50 was > 100 µM (inactive) in the experiment with SF-268; 70.3 µM in the experiment with HCT-15; > 100 µM (inactive) in the experiment with UACC-257; 24.5 µM (inactive) in the experiment on NCI-H522; > 100 µM (inactive) with OVCAR-3; 52.7 µM (inactive) in the experiment on HOP-92. Moreover, the GI50 in the experiment with COLO 205 is 92.7 µM (inactive).

On to `S=C(N/N=C(/c1ccccc1)c1ccccn1)Nc1cccc(Cl)c1`, for which the GI50 in the experiment on SNB-19 is 3.01 µM (inactive); with EKVX, 0.0513 µM (active); in the experiment on SNB-75, 0.0569 µM (active); in the experiment on HCC 2998, 0.748 µM (active); in the experiment on A498, 2.24 µM (inactive); with NCI-H460 it was 0.316 µM (active). For the same molecule, the GI50 in the experiment on SF-268 is 0.462 µM (active); in the experiment on UACC-257, < 0.0475 µM (active); in the experiment with Malme-3M, 0.119 µM (active); in the experiment with HOP-92, 1.93 µM (inactive); in the experiment with ACHN it was 0.225 µM (active); with COLO 205, < 0.0315 µM (active).

Take `Cc1[nH]c(=O)nc(S)c1C(=O)NC1C2CCCCC2NC2CCCCC21` (configuration not stated): the GI50 in the experiment on SNB-19 was 15.6 µM (inactive); with LOX IMVI, 27 µM (inactive); in the experiment on SNB-75, 16.7 µM (inactive); with HCC 2998, 25 µM (inactive); with A498, 18.3 µM (inactive); in the experiment on NCI-H460 it was 14.4 µM (inactive). The GI50 was 10.9 µM with HCT-15; 16.3 µM (inactive) in the experiment with UACC-257; 24.1 µM (inactive) in the experiment on Malme-3M; 16 µM (inactive) in the experiment with OVCAR-3; 18.5 µM (inactive) in the experiment on HOP-92; 20.5 µM (inactive) in the experiment with COLO 205.

As to `O=C(N/N=C\C(F)(F)F)c1ccncc1`, the GI50 was 71.9 µM (inactive) with SNB-19; > 100 µM (inactive) in the experiment on LOX IMVI; 32.2 µM (inactive) in the experiment on SNB-75; 18.5 µM (inactive) with HCC 2998; 46.9 µM (inactive) in the experiment on A498; 19.9 µM (inactive) with NCI-H460. In addition, the GI50 was 26.9 µM in the experiment with HCT-15; 49.3 µM (inactive) in the experiment on UACC-257; > 100 µM (inactive) in the experiment with Malme-3M; 22.3 µM (inactive) in the experiment with OVCAR-3; > 100 µM (inactive) in the experiment with HOP-92; 6.14 µM (inactive) in the experiment on COLO 205.
